Results on five compounds are retold here after PMC8861095, “Neurotoxicological profile of the hallucinogenic compound 25I-NBOMe” (Scientific Reports, 2022).

The subject of data set [1] is rat primary cortical cultures. Also noted: method as in PMID 31078573. To be noted: 30 μM; did not recover after 19 h of washout period; cited from earlier work.
Data set [2] has as its system DNA. More on the design: method as in PMID 33337517. The following applies: 0.3 mg/kg; cited from earlier work.
For the next data set, the system named is SN4741 cells. The following applies: 25–400 µM; cited from earlier work.
For another data set, the system named is SH-SY5Y cells. The following applies: cited from earlier work.
The next data set relates to PC12 cells. To be noted: 25–400 µM; cited from earlier work.
Data set [3] has as its system DNA. The data set is described as follows: Alkaline comet assay on nuclei from frontal cortex and hippocampus. The following applies: for Damaging effect on DNA compared with 25I-NBOMe: frontal cortex and hippocampus, LSD 0.05 mg/kg, MDMA 5 mg/kg, 25I-NBOMe 0.3 mg/kg; for DNA damage (tail moment): vs control; for Tail moment after four injections compared with the acute one: 5 mg/kg ip × 4 vs acute. It counts as in vivo, rat. The protocol:
Animals received single or multiple (once per day for seven days) subcutaneous injections of 25I-NBOMe dissolved in 0.9% NaCl at a dose of 0.3 mg/kg/2 ml. The control group was treated with 0.9% NaCl solution in the same way. All procedures were performed 72 h after the last injection. The time point of 72 h was chosen due to the possible generation of neurotoxicity via oxidative stress caused by reactive oxygen species (ROS). Exceptionally, for initial 25I-NBOMe brain distribution studies, rats received the drug in the dose of 1 and 10 mg/kg and were sacrificed 15 min after the drug administration. The rat blood plasma and brain tissues were collected immediately after rats’ decapitation. LSD (0.05 mg/kg, ip) was given daily for 7 days in a volume of 1 ml/kg, while MDMA 5 mg/kg, ip was injected in a volume of 2 ml/kg every second day (overall 4 injections).
The alkaline comet assay was performed with the use of CometAssay® Reagent Kit for Single Cell Gel Electrophoresis Assay. At 72 h after the acute and chronic treatment with 25I-NBOMe (0.3 mg/kg, sc × 7 days), LSD (0.05 mg/kg, ip × 7 days) or MDMA (5 mg/kg, ip × 4 doses every second day) animals were sacrificed by decapitation and the frontal cortex (that consist of the sum of FC and mPFC) and hippocampus were dissected. After homogenization and several purification and centrifugation stages (as described previously in[17]), the nuclear suspension was obtained using a sucrose gradient (2.8 M/2.6 M, bottom to top). The nuclear fraction was mixed with low melting point agarose and transferred immediately onto CometSlides™. The following steps, including membrane lysis, DNA unwinding, alkaline electrophoresis, and staining (SYBR® Gold), were carried out according to Trevigen CometAssay® protocol. Stained sections were acquired and analyzed under a fluorescence microscope (Nikon Eclipse50i, Japan) equipped with a camera and NIS Elements software. The data was analyzed using OpenComet software v.1.3 (cometbio.org), a plugin of ImageJ program v.1.47 (NIH, Bethesda, MD, USA). DNA damage was presented as a tail moment. Tail moment incorporates a measure of both the smallest detectable size of migrating DNA (reflected by the comet tail length) and the number of damaged pieces (represented by the intensity of DNA in the tail).

Details of data set [4]: method as in PMID 20956470. The following applies: cited from earlier work.

Each structure is given as a SMILES string.

Consider `COc1cc(CCNCc2ccccc2OC)c(OC)cc1Br` [25B-NBOMe], for which the Neuronal activity result in data set [1] is “decreased neuronal activity”. Also, the “DNA damage in the rat frontal cortex” value in the data set with DNA [2] is on record as “potent in damaging DNA”.
For `COc1cc(CCNCc2ccccc2OC)c(OC)cc1Cl` [25C-NBOMe], the Cell viability result with SN4741 cells, in the data set on SH-SY5Y cells (25–400 µM) and with PC12 cells was “potent reduction” each time. Besides, the “Potency to reduce SH-SY5Y cells in respect to methamphetamine” value in the data set with SH-SY5Y cells is on record as 50 times.
Consider `CCN(CC)C(=O)[C@@H]1C=C2c3cccc4[nH]cc(c34)C[C@H]2N(C)C1` [LSD, lysergic acid diethylamide], for which the “Damaging effect on DNA compared with 25I-NBOMe” value with DNA [3] is on record as “weaker in its damaging effect on DNA than 25I-NBOMe”. The “DNA damage after chronic administration compared with a single dose” value with DNA [3] (frontal cortex, 0.05 mg/kg ip × 7 vs single, 72 h) is reported as “significantly greater after chronic administration”. In addition, the “DNA damage (tail moment)” value in the data set with DNA [3] (frontal cortex, single and 7-day treatment 0.05 mg/kg ip, 72 h) is “caused DNA damage”; with DNA [3] (hippocampus, acute and chronic (× 7) 0.05 mg/kg ip, 72 h) it was “significant increase in the tail moment value”. The “DNA damage after repeated injections compared with a single dose” value in the data set with DNA [3] (hippocampus, 0.05 mg/kg ip × 7 vs single, 72 h) is “higher DNA damage than the single dose”.
As for `CNC(C)Cc1ccc2c(c1)OCO2` (centres unmarked) [MDMA, 3,4-methylenedioxymethamphetamine], the “Damaging effect on DNA compared with 25I-NBOMe” value with DNA [3] was “nearly equal to 25I-NBOMe in oxidative damage of DNA”. In addition, the “Tail moment after four injections compared with the acute one” value is “stronger increase in the tail moment value” in the data set on DNA [3] (frontal cortex, 72 h) and “stronger increase in the tail moment value” with DNA [3] (hippocampus, 72 h). Besides, the “DNA damage (tail moment)” value in the data set with DNA [3] (frontal cortex, acute and chronic (4 injections every second day) 5 mg/kg ip, 72 h) is “exhibited DNA damaging properties”; in the data set on DNA [3] (hippocampus, acute and chronic (4 injections every second day) 5 mg/kg ip, 72 h), “exhibited DNA damaging properties”.
As for `COc1cc(CCNCc2ccccc2OC)c(OC)cc1I` [^11C-CIMBI-5], the “Location in brain shortly after intravenous injection” value in data set [4] was “located in the cortex and the lower range in the cerebellum”.
